In ChEMBL document CHEMBL5385856, “Novel 1,4,5,6-tetrahydrocyclopenta[d]imidazole-5-carboxamide-based JNK3 inhibitors: Design, synthesis, molecular docking, and therapeutic potential in neurodegenerative diseases” (Eur J Med Chem, 2023):
Activity calls are given as the source filed them. The calls are words filed in the database; no cut-off is given here.

What was measured:
[1] = molecular target: T1, Mitogen-activated protein kinase 10 (Homo sapiens, UniProt P53779); test: Inhibition of JNK3 (unknown origin) using ATF2 as substrate incubated for 40 mins in presence of [gamma33P]ATP by scintillation counting analysis
[2] = molecular target: Glycogen synthase kinase-3 beta (Homo sapiens, UniProt P49841); test: Inhibition of GSK3beta (unknown origin) incubated for 20 mins in presence of 33P-ATP
[3] = test system: Cortical neurone; test: cells; conditions: Rattus norvegicus, 120 h, read-out: Activity
[4] = molecular target: T2, Mitogen-activated protein kinase 14 (Homo sapiens, UniProt Q16539); test: Inhibition of p38alpha (unknown origin) incubated for 20 mins in presence of 33P-ATP
[5] = molecular target: Mitogen-activated protein kinase 10 (Rattus norvegicus) (UniProt P49187); test: Inhibition of JNK3 in primary rat cortex neuron cells assessed as reduction in Abeta1-42 induced c-Jun phosphorylation by Western blotting analysis; type: cell-based; conditions: Primary cortical neuron
[6] = molecular target: Mitogen-activated protein kinase 10 (Rattus norvegicus) (UniProt P49187); test: Inhibition of JNK3 in primary rat cortex neuron cells assessed as reduction in Abeta1-42 induced APP phosphorylation by Western blotting analysis; type: cell-based; conditions: Primary cortical neuron
[7] = molecular target: T3, Mitogen-activated protein kinase 8 (Homo sapiens, UniProt P45983); test: Inhibition of JNK1 (unknown origin) incubated for 20 mins in presence of 33P-ATP
[8] = molecular target: T4, Mitogen-activated protein kinase 9 (Homo sapiens, UniProt P45984); test: Inhibition of JNK2 (unknown origin) incubated for 20 mins in presence of 33P-ATP
Target sequence in this assay (P45984 whole entry): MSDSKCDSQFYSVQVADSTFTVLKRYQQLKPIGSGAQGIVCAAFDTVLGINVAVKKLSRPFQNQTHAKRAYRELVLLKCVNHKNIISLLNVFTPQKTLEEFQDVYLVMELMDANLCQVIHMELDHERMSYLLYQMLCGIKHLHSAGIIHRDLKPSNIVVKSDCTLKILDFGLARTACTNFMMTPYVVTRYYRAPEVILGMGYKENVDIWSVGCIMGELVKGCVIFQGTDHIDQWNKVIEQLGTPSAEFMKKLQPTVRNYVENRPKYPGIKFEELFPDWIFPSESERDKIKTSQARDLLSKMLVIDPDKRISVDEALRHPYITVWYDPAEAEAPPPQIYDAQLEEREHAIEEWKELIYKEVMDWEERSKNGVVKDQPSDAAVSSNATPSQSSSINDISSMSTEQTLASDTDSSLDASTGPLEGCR

[9] = Selectivity ratio of IC50 for inhibition of JNK1 (unknown origin) to IC50 for inhibition of JNK3 (unknown origin)
[10] = molecular target: T3, Mitogen-activated protein kinase 8; test: Inhibition of JNK1 (unknown origin) at 1 uM relative to control
[11] = molecular target: T1, Mitogen-activated protein kinase 10; test: Inhibition of JNK3 (unknown origin) at 1 uM relative to control
[12] = molecular target: T4, Mitogen-activated protein kinase 9; test: Inhibition of JNK2 (unknown origin) at 1 uM relative to control
Target sequence in this assay (P45984 whole entry, looked up): as the sequence (P45984 whole entry) above

[13] = molecular target: T2, Mitogen-activated protein kinase 14; test: Inhibition of p38alpha (unknown origin) at 1 uM relative to control

T2 sequence (Q16539 whole entry): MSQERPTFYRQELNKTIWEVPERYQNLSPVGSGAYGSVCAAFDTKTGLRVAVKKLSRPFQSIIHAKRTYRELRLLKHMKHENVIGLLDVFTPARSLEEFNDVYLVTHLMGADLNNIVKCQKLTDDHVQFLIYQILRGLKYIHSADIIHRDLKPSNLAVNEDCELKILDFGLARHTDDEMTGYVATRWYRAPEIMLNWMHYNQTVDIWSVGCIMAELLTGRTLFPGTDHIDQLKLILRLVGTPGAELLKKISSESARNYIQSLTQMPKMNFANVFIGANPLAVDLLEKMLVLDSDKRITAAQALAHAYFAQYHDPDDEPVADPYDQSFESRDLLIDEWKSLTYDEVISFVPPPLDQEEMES
T1 sequence (P53779 whole entry): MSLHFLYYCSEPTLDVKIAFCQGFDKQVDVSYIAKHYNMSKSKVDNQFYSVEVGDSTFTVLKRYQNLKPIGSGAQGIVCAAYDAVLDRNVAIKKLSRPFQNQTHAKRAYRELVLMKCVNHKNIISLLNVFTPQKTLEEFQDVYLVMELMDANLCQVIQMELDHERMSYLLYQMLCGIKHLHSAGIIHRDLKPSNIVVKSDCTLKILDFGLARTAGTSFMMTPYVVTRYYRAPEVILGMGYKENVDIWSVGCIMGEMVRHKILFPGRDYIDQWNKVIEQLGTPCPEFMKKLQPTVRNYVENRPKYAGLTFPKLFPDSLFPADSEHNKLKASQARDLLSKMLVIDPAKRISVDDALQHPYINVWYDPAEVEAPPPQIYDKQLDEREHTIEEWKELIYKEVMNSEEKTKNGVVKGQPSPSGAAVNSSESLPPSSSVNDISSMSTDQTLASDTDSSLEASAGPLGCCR
Chain of Glycogen synthase kinase-3 beta (P49841 whole entry): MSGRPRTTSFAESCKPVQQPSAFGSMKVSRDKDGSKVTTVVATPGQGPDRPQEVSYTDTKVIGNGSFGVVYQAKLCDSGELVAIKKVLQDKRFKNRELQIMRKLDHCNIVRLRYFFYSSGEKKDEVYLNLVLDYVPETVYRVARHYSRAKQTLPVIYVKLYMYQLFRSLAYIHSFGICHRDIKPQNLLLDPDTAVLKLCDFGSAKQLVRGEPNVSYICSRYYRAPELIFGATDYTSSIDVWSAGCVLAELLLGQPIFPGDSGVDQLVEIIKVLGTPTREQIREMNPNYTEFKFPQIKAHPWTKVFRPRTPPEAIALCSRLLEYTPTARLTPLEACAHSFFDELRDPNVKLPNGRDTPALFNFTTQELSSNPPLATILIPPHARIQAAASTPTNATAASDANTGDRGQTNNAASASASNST
T3 sequence (P45983 whole entry): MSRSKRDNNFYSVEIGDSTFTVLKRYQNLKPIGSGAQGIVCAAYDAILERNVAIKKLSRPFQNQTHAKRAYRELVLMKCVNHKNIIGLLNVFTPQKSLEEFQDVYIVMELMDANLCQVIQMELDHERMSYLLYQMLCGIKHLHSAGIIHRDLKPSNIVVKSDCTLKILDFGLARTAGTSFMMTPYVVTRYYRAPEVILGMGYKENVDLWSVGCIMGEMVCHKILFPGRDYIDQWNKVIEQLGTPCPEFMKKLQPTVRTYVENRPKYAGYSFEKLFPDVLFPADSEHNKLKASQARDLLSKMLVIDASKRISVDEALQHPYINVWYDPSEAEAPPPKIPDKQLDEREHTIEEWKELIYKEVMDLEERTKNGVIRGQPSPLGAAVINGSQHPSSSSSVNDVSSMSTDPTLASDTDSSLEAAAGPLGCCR
Chain of Mitogen-activated protein kinase 10 (Rattus norvegicus) (P49187 whole entry): as the sequence (P53779 whole entry) above, with Q27H, Y32S, I33V, A34V counted along it

Compound: CCOC(=O)C1Cc2nc(-c3ccc4ccccc4c3)n(-c3ccnc(N[C@H]4CCCN(C(=O)C5CC5)C4)n3)c2C1 (stereo partly specified)
- IC50 [1]: 0.000716 µM
- IC50 [2]: 2.25 µM
- viability at 10 µM [3]: 55.7%
- IC50 [4]: 0.291 µM
- inhibition [5]: Active
- inhibition [6]: Active
- IC50 [7]: 0.0325 µM
- IC50 [8]: 0.013 µM

Compound: NC(=O)C1Cc2nc(-c3ccc4c(c3)OCO4)n(-c3ccnc(N[C@H]4CCN(C(=O)C5CC5)C4)n3)c2C1 (stereo partly specified)
- IC50 [1]: 0.135 µM

Compound: CCOC(=O)C1Cc2nc(-c3ccc4c(c3)OCO4)n(-c3ccnc(N[C@@H]4CCN(C(=O)C5CC5)C4)n3)c2C1 (stereo partly specified)
- IC50 [1]: 0.0499 µM

Compound: CCOC(=O)C1Cc2nc(-c3ccc(Cl)c(Cl)c3)n(-c3ccnc(N[C@@H]4CCN(C(=O)C5CC5)C4)n3)c2C1 (stereo partly specified)
- IC50 [1]: 0.00433 µM

Compound: CNC(=O)C1Cc2nc(-c3ccc(Cl)c(Cl)c3)n(-c3ccnc(N[C@H]4CCN(C(=O)C5CC5)C4)n3)c2C1 (stereo partly specified)
- IC50 [1]: 0.0102 µM

Compound: CNC(=O)C1Cc2nc(-c3ccc(Cl)c(Cl)c3)n(-c3ccnc(N[C@H]4CCCN(C(=O)C5CC5)C4)n3)c2C1 (stereo partly specified)
- IC50 [1]: 0.0012 µM
- IC50 [2]: > 10 µM
- Ratio IC50 [9]: 100
- IC50 [4]: 0.532 µM
- IC50 [7]: 0.0865 µM
- IC50 [8]: 0.0154 µM

Compound: CNC(=O)C1Cc2nc(-c3ccc(Cl)c(Cl)c3)n(-c3ccnc(N[C@@H]4CCCN(C(=O)C5CC5)C4)n3)c2C1 (stereo partly specified)
- IC50 [1]: 0.00483 µM

Compound: NC(=O)C1Cc2nc(-c3ccc(F)c(C(F)(F)F)c3)n(-c3ccnc(N[C@H]4CCCN(C(=O)C5CC5)C4)n3)c2C1 (stereo partly specified)
- IC50 [1]: 0.00639 µM

Compound: CCOC(=O)C1Cc2nc(-c3ccc4c(c3)OCO4)n(-c3ccnc(N[C@@H]4CCCN(C(=O)C5CC5)C4)n3)c2C1 (stereo partly specified)
- IC50 [1]: 0.0012 µM

Compound: CCOC(=O)C1Cc2nc(-c3ccc4c(c3)CCO4)n(-c3ccnc(N[C@H]4CCN(C(=O)C5CC5)C4)n3)c2C1 (stereo partly specified)
- IC50 [1]: 0.158 µM

Compound: CCOC(=O)C1Cc2nc(-c3ccc4c(c3)OCO4)n(-c3ccnc(N[C@H]4CCCN(C(=O)C5CC5)C4)n3)c2C1 (stereo partly specified)
- IC50 [1]: 0.0105 µM

Compound: NC(=O)C1Cc2nc(-c3ccc(Cl)c(Cl)c3)n(-c3ccnc(N[C@@H]4CCCN(C(=O)C5CC5)C4)n3)c2C1 (stereo partly specified)
- IC50 [1]: 0.00073 µM
- inhibition [10]: 80%
- IC50 [2]: 0.47 µM
- inhibition [11]: 100%
- IC50 [4]: 0.0706 µM
- inhibition [12]: 80%
- IC50 [7]: 0.16 µM
- inhibition [13]: 80%
- IC50 [8]: 0.0166 µM

Compound: NC(=O)C1Cc2nc(-c3ccc4c(c3)CCO4)n(-c3ccnc(N[C@H]4CCCN(C(=O)C5CC5)C4)n3)c2C1 (stereo partly specified)
- IC50 [1]: 0.00906 µM
- viability at 10 µM [3]: 53%

Compound: CCOC(=O)C1Cc2nc(-c3ccc(F)c(C(F)(F)F)c3)n(-c3ccnc(N[C@H]4CCN(C(=O)C5CC5)C4)n3)c2C1 (stereo partly specified)
- IC50 [1]: 0.453 µM

Compound: CCOC(=O)C1Cc2nc(-c3ccc(Cl)c(Cl)c3)n(-c3ccnc(N[C@@H]4CCCN(C(=O)C5CC5)C4)n3)c2C1 (stereo partly specified)
- IC50 [1]: 0.000607 µM
- IC50 [2]: 0.195 µM
- IC50 [4]: 0.0532 µM
- IC50 [7]: 0.0828 µM
- IC50 [8]: 0.00856 µM

Compound: NC(=O)C1Cc2nc(-c3ccc4c(c3)OCO4)n(-c3ccnc(N[C@@H]4CCN(C(=O)C5CC5)C4)n3)c2C1 (stereo partly specified)
- IC50 [1]: 0.103 µM

Compound: CCOC(=O)C1Cc2nc(-c3ccc(F)c(C(F)(F)F)c3)n(-c3ccnc(N[C@H]4CCCN(C(=O)C5CC5)C4)n3)c2C1 (stereo partly specified)
- IC50 [1]: 0.0528 µM

Compound: CCOC(=O)C1Cc2nc(-c3ccc(F)c(C(F)(F)F)c3)n(-c3ccnc(N[C@@H]4CCCN(C(=O)C5CC5)C4)n3)c2C1 (stereo partly specified)
- IC50 [1]: 0.0654 µM

Compound: CNC(=O)C1Cc2nc(-c3ccc4c(c3)OCO4)n(-c3ccnc(N[C@@H]4CCN(C(=O)C5CC5)C4)n3)c2C1 (stereo partly specified)
- IC50 [1]: 0.0939 µM

Compound: NC(=O)C1Cc2nc(-c3ccc4ccccc4c3)n(-c3ccnc(N[C@@H]4CCN(C(=O)C5CC5)C4)n3)c2C1 (stereo partly specified)
- IC50 [1]: 0.0249 µM

Compound: CCOC(=O)C1Cc2nc(-c3ccc4ccccc4c3)n(-c3ccnc(N[C@H]4CCN(C(=O)C5CC5)C4)n3)c2C1 (stereo partly specified)
- IC50 [1]: 0.0234 µM

Compound: CNC(=O)C1Cc2nc(-c3ccc(F)c(C(F)(F)F)c3)n(-c3ccnc(N[C@@H]4CCN(C(=O)C5CC5)C4)n3)c2C1 (stereo partly specified)
- IC50 [1]: 0.3 µM

Compound: NC(=O)C1Cc2nc(-c3ccc4c(c3)CCO4)n(-c3ccnc(N[C@@H]4CCN(C(=O)C5CC5)C4)n3)c2C1 (stereo partly specified)
- IC50 [1]: 0.063 µM

Compound: NC(=O)C1Cc2nc(-c3ccc(Cl)c(Cl)c3)n(-c3ccnc(N[C@@H]4CCN(C(=O)C5CC5)C4)n3)c2C1 (stereo partly specified)
- IC50 [1]: 0.0164 µM

Compound: CCOC(=O)C1Cc2nc(-c3ccc(Cl)c(Cl)c3)n(-c3ccnc(N[C@H]4CCCN(C(=O)C5CC5)C4)n3)c2C1 (stereo partly specified)
- IC50 [1]: 0.00111 µM
- IC50 [2]: 4.86 µM
- viability at 10 µM [3]: 63.2%
- IC50 [4]: 0.285 µM
- IC50 [7]: 0.158 µM
- IC50 [8]: 0.0148 µM

Compound: NC(=O)C1Cc2nc(-c3ccc(F)c(C(F)(F)F)c3)n(-c3ccnc(N[C@H]4CCN(C(=O)C5CC5)C4)n3)c2C1 (stereo partly specified)
- IC50 [1]: 0.183 µM
